Assay results: patent publication US11607417B2, “Uses of celastrol in preventing and/or treating cholestatic liver disease and liver fibrosis” (KUNMING INSTITUTE OF BOTANY, THE CHINESE ACADEMY OF SCIENCES, priority 2017, dated 2023)
Values joined by “and” are separate entries in the source; they are usually repeats but may differ in a detail not shown here. Equal values may be shown once.

Tested on: ANIT-induced cholestatic liver injury
Test: ANIT-induced mouse cholestatic liver injury (Example 1)
Assay type: in vivo, C57BL/6 mice
Protocol: A total of 18 male C57BL/6 mice were divided into three groups: blank group (n=6); model group (n=6); treatment group (n=6).
Celastrol was dissolved in a solvent to obtain a celastrol solution at a concentration of 2 mg/mL, wherein the solvent consisted of 1% DMSO, 2% Tween 80, and 97% water (v:v:v). For intragastrical administration, the dosage of celastrol was 10 mg/kg·d. ANIT was dissolved in corn oil to obtain a corn oil solution of ANIT at a concentration of 15 mg/mL, and the dosage of ANIT for intragastrical administration was 75 mg/kg.
The treatment group was intragastrically administered with the celastrol solution at a dosage of 10 mg/kg·d for five consecutive days. At the same time, the blank group and the model group were intragastrically administered with the same dosage of a solvent, wherein the solvent consisted of 1% DMSO, 2% Tween 80 and 97% water (v:v:v), and the solvent was administrated for five consecutive days.
On the third day of administration, ANIT model was established. 4 Hours after administration with the solvent or celastrol solution, the model group and the treatment group were respectively intragastrically administered with the ANIT corn oil solution to induce cholestatic liver injury at a dosage of 75 mg/kg for single administration, and the blank group was fed with an equal dosage of corn oil. After the model was established, the treatment group was continuously administrated with the celastrol solution, and the blank group and the model group was continuously administrated with the same dosage of solvent.
48 Hours after the model was established, the mice were sacrificed by CO2 anesthesia, and mouse livers and plasma samples were taken. The eyeballs of the mice were taken for blood collection. The plasma samples were placed on ice for 1-2 hours, centrifuged at 4000 g for 5 minutes at 4° C., and the supernatant was taken to determine the plasma biochemical indicators, the levels of ALT, AST and ALP.
At the same time, plasma samples were prepared: 10 μL of plasma sample was taken, mixed with 190 μL of 67% (v/v) acetonitrile (containing 5 μM internal standard chlorpropamide), centrifuged at 18000 g for 20 minutes at 4° C., and the supernatant was taken for sample injection.
Liver samples were prepared: 100 mg of liver samples were mixed well with 1 mL of 50% (v/v) acetonitrile (containing 5 μM internal standard chlorpropamide), shaken for 20 minutes at room temperature, and then centrifuged at 18000 g for 20 minutes at 4° C. Thereafter, 200 μL of the supernatant was taken and added with 200 μL of pure acetonitrile, vortexed for 1 minute, centrifuged at 18000 g for 20 minutes at 4° C., and the supernatant was taken for sample injection.
The liquid chromatography conditions were as follows: the injection volume was 5 μL; the column temperature was 45° C.; the flow rate of mobile phase was 0.3 mL/min; the gradient elution was that acetonitrile concentration changed from 2% to 98% during 16 minutes of operation, wherein the mobile phase (water/acetonitrile solution) contained 0.01% formic acid. The elution procedure was as follows: during 0-12th minute, the acetonitrile concentration changed from 2% to 98% at a constant rate; during 12-14th minute, the acetonitrile concentration was maintained at 98%; during 14-14.1th minute, the acetonitrile concentration changed from 98% to 2%; during 14.1-16th minute, the acetonitrile concentration was maintained at 2%. Mass spectrometry conditions were as follows: the temperature of dry gas was 350° C., the pressure of nebulizer was 35 psi, and the voltage of capillary was 3.5 kV.
Part of the collected mouse liver tissue was fixed overnight in formalin and tissue sections were stained with hematoxylin and eosin (H&E).

[1] = celastrol 10 mg/kg·d intragastric 5 days, ANIT 75 mg/kg on day 3, 48 h after ANIT, n=6
[2] = celastrol 10 mg/kg·d intragastric 5 days, ANIT 75 mg/kg, 48 h after ANIT, n=6

`CC1=C(O)C(=O)C=C2C1=CC=C1[C@@]2(C)CC[C@@]2(C)[C@@H]3C[C@](C)(C(=O)O)CC[C@]3(C)CC[C@]12C` [celastrol, Celastrol] was tested, and the “Levels of bile acids in plasma vs ANIT model group” value (CA, DCA, TβMCA/TαMCA, TCA, THDCA/TUDCA, celastrol 10 mg/kg·d, FIG. 1D) was “significantly lower”, the “Liver weight of mouse when sacrificed” value [1] was 1.01 g and 1.01 ± 0.05 g and the Liver weight/body weight [1] was 4.66% and 4.66 ± 0.23 %. The “ALP in mouse plasma” value [2] was 27.3 ± 3.7 U/l, the “ALT in mouse plasma” value [2] was 54.0 ± 36.4 U/l and the “AST in mouse plasma” value [2] was 72.0 ± 34.4 U/l. For the same molecule, the “H&E staining of mouse liver tissue” value (celastrol 10 mg/kg·d intragastric, ANIT model, FIG. 1C) was “no obvious damage” and the “Levels of bile acids in liver vs ANIT model group” value (ω-MCA, β-MCA, CA, DCA, TβMCA/TαMCA, TCA, GCA, TLCA, celastrol 10 mg/kg·d, FIG. 1E) was “significantly lower”.
